Results from ChEMBL document CHEMBL1201862, “PubChem BioAssay data set” (2004).
Activity calls are given as the source filed them. For most assays here, no stated cut-off is given here; in the data, actives have a measured EC50 and inactives only a lower limit.

Legend:
[1] = molecular target: Melanin-concentrating hormone receptor 1 (Homo sapiens, UniProt Q99705); assay: Late-stage fluorescence-based counterscreen for antagonists of the G-protein coupled receptor 7 (GPR7): cell-based dose response assay to identify antagonists of the melanin-concentrating hormone receptor 1 (MCHR1) Set 5.; format: functional
Melanin-concentrating hormone receptor 1, sequence (Q99705 whole entry): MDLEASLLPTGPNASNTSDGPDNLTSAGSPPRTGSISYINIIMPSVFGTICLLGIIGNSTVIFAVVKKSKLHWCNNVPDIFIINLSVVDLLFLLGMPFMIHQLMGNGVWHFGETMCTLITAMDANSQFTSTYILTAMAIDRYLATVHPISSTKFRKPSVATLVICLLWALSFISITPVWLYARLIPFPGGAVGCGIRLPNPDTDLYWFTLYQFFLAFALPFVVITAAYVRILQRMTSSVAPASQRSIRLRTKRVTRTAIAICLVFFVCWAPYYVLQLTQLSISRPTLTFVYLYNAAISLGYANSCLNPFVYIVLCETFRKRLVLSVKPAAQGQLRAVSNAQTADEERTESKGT

[2] = NIH-3T3 fibroblast cytotoxicity, dose response, cytotoxicity control, cell-based, fluorescence, Alamar Blue, secondary assay (AID 2327); format: functional;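 further: NIH-3T3 mouse fibroblasts cultured with fluconazole at 8 µg/mL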
[3] = molecular target: ATP-dependent molecular chaperone HSP82 (Candida albicans (strain WO-1) (Yeast), UniProt C4YTQ8); assay: steroid-induced GRE reporter decrease in yeast – S. cerevisiae, luminescence, Hsp90 inhibitor project, dose response (AID 2400); format: functional, cell-based;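 further: beta-galactosidase luminescence from glucocorticoid response element reporter as proxy for Hsp90 function; inhibitor potency where signal loss means Hsp90 inhibition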
ATP-dependent molecular chaperone HSP82, sequence (C4YTQ8 whole entry): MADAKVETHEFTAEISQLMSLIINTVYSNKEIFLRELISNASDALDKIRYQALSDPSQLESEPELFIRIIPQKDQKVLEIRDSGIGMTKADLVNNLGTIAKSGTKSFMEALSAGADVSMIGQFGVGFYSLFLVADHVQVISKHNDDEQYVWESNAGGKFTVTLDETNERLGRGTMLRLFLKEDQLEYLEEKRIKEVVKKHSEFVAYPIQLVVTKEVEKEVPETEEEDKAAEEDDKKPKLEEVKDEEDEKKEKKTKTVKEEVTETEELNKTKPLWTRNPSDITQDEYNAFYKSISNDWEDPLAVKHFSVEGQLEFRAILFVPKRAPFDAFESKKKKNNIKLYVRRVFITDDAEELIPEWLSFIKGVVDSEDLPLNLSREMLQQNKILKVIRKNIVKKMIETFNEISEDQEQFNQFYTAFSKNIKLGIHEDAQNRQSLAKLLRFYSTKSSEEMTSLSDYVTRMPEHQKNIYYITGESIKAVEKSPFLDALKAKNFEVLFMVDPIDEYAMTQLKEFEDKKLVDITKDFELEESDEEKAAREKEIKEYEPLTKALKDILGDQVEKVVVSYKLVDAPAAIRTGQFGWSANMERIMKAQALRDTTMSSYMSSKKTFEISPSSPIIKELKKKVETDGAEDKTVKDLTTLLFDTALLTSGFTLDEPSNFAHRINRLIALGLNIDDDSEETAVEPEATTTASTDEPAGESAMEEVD

[4] = molecular target: Serine/threonine-protein phosphatase (Candida dubliniensis (strain CD36 / CBS 7987 / NCPF 3949 / NRRLY-17841) (Yeast), UniProt B9W6M3); assay: blockers of CaCl2-induced CDRE-lacZ signaling – S. cerevisiae, luminescence, secondary, dose response (AID 2388); format: functional, cell-based;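 further: yeast reporter cells carrying a calcineurin-responsive lacZ construct stimulated with calcium chloride; luminescent beta-galactosidase reporter signal in whole cells rather than isolated phosphatase activity; potency for inhibition where a drop in reporter signal means calcineurin blockade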
Serine/threonine-protein phosphatase, sequence (B9W6M3 whole entry): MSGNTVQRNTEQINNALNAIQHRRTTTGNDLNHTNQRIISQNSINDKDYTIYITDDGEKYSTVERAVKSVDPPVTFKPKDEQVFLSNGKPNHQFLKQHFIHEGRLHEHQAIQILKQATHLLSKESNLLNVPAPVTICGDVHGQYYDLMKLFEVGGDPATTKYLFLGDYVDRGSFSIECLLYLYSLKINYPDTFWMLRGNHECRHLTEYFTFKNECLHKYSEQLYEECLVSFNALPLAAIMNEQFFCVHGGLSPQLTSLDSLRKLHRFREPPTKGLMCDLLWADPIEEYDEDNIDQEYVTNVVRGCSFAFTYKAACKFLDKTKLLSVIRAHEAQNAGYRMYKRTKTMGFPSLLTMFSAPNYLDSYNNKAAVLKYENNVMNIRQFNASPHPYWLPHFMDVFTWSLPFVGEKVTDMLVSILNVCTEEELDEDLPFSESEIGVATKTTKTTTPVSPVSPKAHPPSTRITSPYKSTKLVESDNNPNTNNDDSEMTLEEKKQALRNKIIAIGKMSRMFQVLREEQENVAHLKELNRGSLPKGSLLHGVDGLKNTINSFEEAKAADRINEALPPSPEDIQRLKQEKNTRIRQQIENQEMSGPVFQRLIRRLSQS

Streptokinase A = molecular target: T1, Streptokinase A (Streptococcus pyogenes serotype M1, UniProt P10520); assay: viability-normalized secreted streptokinase activity reduction – plasminogen activation absorbance, OD405, dose response (AID 1914); format: functional, Streptococcus pyogenes M1 GAS;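 further: secreted streptokinase activity via plasminogen activation per viability signal from cell pellet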
T1 sequence (P10520 whole entry): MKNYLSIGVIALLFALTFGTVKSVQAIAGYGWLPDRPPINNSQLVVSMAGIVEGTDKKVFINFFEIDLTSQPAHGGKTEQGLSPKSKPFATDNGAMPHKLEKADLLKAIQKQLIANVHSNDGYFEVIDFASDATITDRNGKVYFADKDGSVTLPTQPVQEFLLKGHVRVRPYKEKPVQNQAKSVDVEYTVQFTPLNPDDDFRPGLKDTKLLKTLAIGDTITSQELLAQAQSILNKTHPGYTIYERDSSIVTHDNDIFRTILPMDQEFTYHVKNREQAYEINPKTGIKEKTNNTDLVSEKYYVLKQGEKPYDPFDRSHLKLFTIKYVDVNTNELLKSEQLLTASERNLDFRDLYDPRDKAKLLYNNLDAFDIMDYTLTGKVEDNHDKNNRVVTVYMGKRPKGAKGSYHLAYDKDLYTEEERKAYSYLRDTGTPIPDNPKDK

INS1 = assay: INS-1E survival protection against cytokine death – cell-based, luminescence, retest, dose response (AID 449756); format: functional; settings: Rattus norvegicus;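 further: cell death triggered by IL-1 beta plus TNF-alpha plus IFN-gamma mixture; protective hits raise ATP signal compared with cytokine alone wells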
BJ [5] = assay: cells; format: functional, cell-based; settings: Homo sapiens
[6] = DRD fibroblast viability loss – cell-based, non-viral oncogenic, luminescence, dose response (AID 1934); format: functional; settings: Homo sapiens
BJ [7] = assay: BJ-TERT fibroblast viability loss – cell-based, RAS-independent, luminescence, dose response (AID 1933); format: functional; settings: Homo sapiens
[8] = NIH3T3 cell viability loss – ATP luminescence, mouse fibroblasts, counter-screen, dose response (AID 2010); format: functional, cell-based;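 further: cells exposed to compound for about 90 hours before reading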
[9] = test system: Streptococcus sp. 'group A'; assay: Streptococcus pyogenes SK(-)GAS viability under kanamycin – luminescence, BacTiterGlo, confirmation, counter-screen for streptokinase expression inhibitor project, dose response (AID 1900); format: functional, organism-based
[10] = Trypanosoma cruzi growth suppression in host cells – NIH3T3 host cells, beta-gal luminescence, confirmation (AID 2044); format: functional, cell-based;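 further: intracellular parasites grown in NIH/3T3 mouse fibroblasts as host cells; luminescent beta-galactosidase reporter signal from transgenic T. cruzi replicating inside host cells; inhibitors lower the luminescence signal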
BJ [11] = assay: BJ-TERT-LT-ST fibroblast viability loss – cell-based, RAS-independent, luminescence, dose response (AID 1935); format: functional; settings: Homo sapiens;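 further: BJ fibroblasts immortalized with TERT plus LT and ST oncogenes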
[12] = fluconazole-exposed Candida albicans growth modulators – fluorescence, retest, confirmation (AID 2467); format: functional, cell-based
Streptococcus = assay: GAS UMAA2166 growth inhibition – luminescence, BacTiterGlo, counter-screen for streptokinase expression inhibitor project, dose response (AID 1915); format: functional, organism-based;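 further: potency for reduction of bacterial viability or growth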
[13] = molecular target: T2, Corticotropin-releasing factor receptor 2/Corticotropin-releasing factor-binding protein (Homo sapiens, UniProt P24387+Q13324); assay: activators of CRF receptor 2 with binding protein – uHTS hits, confirmation (AID 602473); format: functional; settings: read-out: EC50_Mean
T2 sequence (Q13324 whole entry): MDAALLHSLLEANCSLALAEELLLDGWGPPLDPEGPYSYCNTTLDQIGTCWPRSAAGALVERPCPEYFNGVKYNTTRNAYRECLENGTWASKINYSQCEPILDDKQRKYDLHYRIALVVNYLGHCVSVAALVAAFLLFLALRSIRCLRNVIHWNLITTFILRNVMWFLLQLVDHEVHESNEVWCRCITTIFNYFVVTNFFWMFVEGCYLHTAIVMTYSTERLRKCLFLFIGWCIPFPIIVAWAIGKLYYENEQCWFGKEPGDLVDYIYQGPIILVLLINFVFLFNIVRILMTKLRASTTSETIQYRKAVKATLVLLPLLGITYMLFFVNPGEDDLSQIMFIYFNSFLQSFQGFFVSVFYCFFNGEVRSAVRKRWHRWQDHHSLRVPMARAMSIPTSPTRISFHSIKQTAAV
T2 sequence (P24387 whole entry): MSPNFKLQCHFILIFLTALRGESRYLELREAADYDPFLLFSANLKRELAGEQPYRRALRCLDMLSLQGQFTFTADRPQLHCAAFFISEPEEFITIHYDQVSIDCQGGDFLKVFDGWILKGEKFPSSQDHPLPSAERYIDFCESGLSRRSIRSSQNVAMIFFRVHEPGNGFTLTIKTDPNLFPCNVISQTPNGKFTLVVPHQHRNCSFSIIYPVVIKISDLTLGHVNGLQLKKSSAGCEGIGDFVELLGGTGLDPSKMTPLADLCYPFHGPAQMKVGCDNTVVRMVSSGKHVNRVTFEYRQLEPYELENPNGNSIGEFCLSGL

[14] = molecular target: NACHT, LRR and PYD domains-containing protein 3 (Homo sapiens, UniProt Q96P20); assay: NALP3 inhibitors in yeast, dose response, luminescent (AID 488799); format: functional
NACHT, LRR and PYD domains-containing protein 3, sequence (Q96P20 whole entry, the tested form may be a part): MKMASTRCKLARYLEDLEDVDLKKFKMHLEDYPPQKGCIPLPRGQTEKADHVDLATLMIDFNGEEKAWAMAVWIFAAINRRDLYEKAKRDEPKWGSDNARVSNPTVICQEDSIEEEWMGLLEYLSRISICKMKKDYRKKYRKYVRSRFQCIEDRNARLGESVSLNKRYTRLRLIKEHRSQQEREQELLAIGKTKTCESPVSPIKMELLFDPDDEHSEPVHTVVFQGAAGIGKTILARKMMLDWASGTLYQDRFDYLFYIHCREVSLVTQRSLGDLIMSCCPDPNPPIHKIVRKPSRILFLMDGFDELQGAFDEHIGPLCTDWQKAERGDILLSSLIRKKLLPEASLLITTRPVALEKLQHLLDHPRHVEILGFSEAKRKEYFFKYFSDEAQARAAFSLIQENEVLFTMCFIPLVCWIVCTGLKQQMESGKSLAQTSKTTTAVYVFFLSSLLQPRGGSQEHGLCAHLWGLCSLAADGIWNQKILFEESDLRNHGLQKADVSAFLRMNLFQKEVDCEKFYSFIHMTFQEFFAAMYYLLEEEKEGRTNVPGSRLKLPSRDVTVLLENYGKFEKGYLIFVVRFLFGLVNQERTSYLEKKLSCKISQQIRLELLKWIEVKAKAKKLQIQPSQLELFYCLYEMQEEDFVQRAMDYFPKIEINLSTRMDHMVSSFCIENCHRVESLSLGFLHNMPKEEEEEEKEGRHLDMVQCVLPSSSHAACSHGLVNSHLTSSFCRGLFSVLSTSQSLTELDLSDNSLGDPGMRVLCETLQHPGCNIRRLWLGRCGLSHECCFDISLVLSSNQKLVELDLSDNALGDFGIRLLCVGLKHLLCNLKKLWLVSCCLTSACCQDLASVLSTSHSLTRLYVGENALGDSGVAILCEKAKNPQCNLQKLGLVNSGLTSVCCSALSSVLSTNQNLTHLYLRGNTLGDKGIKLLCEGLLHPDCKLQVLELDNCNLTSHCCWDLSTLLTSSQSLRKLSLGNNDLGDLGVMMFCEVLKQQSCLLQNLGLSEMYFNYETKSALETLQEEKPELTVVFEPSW

Structure (SMILES) | IC50 [1] | EC50 [2] | EC50 [3] | EC50 [4] | EC50 (Streptokinase A) | AC50 (INS1) | EC50 (BJ [5]) | EC50 [6] | EC50 (BJ [7]) | EC50 [8] | EC50 [9] | EC50 [10] | EC50 (BJ [11]) | EC50 [12] | EC50 (Streptococcus) | EC50 [13] | IC50 [14]
CCc1ccccc1Cn1ncc(Cl)c(Oc2ccc(OC)cc2)c1=O | 4.62 µM (active) |  |  |  |  |  |  |  |  |  |  |  |  |  |  |  | 
Nc1nonc1-n1nnc(C(=O)N/N=C/c2cc(Cl)ccc2O)c1CN1CCCCCC1 |  | 29.6 µM (active) | > 150 µM (inactive) | > 180 µM (inactive) | > 150 µM (not active) | 1.85 µM (active) | 115 µM (active) | 55.4 µM (active) | 24.9 µM (active) | 6.91 µM (active) | 4.87 µM (active) | 1.39 µM (active) | > 75 µM (not active) | 0.296 µM (active) | 20.4 µM (active) |  | 
O=C(NNC(=S)NC(=O)c1ccc(Br)cc1)c1ccc([N+](=O)[O-])cc1 |  | > 160 µM (inconclusive) | > 160 µM (inactive) | > 180 µM (inactive) |  |  |  |  |  |  |  |  |  | 0.198 µM (active) |  | 5.32 µM (active) | 5.63 µM (active)
